# In patent US9345671B2, “Adiponectin production enhancer” (Daiichi Sankyo Company, Limited, priority 2003, dated 2016):
# Key:
# [1] = test system: secreted adiponectin; assay: Measurement of amount of secreted adiponectin in 3T3-L1 adipocyte culture supernatant by Western blotting; format: cell-based; conditions: 3T3-L1 adipocytes culture supernatant, test compound 10 μM, 48 hours then 24 hours after replacing the medium; densitometer
# Description: (§1) Preadipocyte cell line 3T3-L1 was purchased from the American Type Culture Collection (ATCC). […] Subsequently, the medium was replaced with fresh growth medium every 3 days, and the 3T3-L1 adipocytes were prepared on day 10 after the start of differentiation. Test compounds that were poorly soluble in water were used after dissolving in DMSO. Test compounds that were easily soluble in water were dissolved in sterile water followed by addition of the same amount of DMSO as that used for the aforementioned poorly water-soluble test compounds. In addition, in the case of test compounds that are poorly soluble in water, the test compound may be dissolved in ethanol and used following the addition of 0.1 N aqueous sodium hydroxide solution after shaking as necessary. After allowing the 3T3-L1 cells to adequately differentiate into adipocytes, a test compound was added to the medium to a final concentration of 10 μM followed by culturing the cells for 48 hours. The cells were additionally cultured for 24 hours after replacing the medium. […] Secretion of adiponectin into culture supernatant was detected by Western blotting. […] After washing the PVDF membrane, the adiponectin bands were detected using ECL Detection Reagents (Amersham-Pharmacia). The bands were quantified with a densitometer (Molecular Devices). The amounts of secreted adiponectin were analyzed by Western blotting.
# [2] = test system: adiponectin mRNA; assay: Measurement of adiponectin mRNA by quantitative RT-PCR in 3T3-L1 adipocytes; format: cell-based; conditions: test compound 10 μM, 48 hours then 24 hours after replacing the medium, 36B4 internal control
# Description: as §1, with “The synthesized cDNA was amplified using FastStrand DNA Master SYBR Green I (Roche Diagnostics), and the amplified PCR product” for “Secretion of adiponectin into culture supernatant”, “with LightCycler (Roche Diagnostics).” for “by Western blotting.”, “The” for “After washing the PVDF membrane, the”, “mRNA amount was measured according to quantitative RT-PCR.” for “bands were detected using ECL Detection Reagents (Amersham-Pharmacia). The bands were quantified with a densitometer (Molecular Devices). The amounts of secreted adiponectin were analyzed by Western blotting.”
# [3] = test system: C57BL/6J mice; assay: Administration of pravastatin to mice in feed: blood glucose levels and adiponectin concentrations; format: in vivo; conditions: 0.06% (wt/wt) in feed for 15 weeks
# Description: The body weights of the animals were measured and blood samples were collected on the day the test started, and the animals were divided into two groups of 5 animals per cage based on their body weights and blood glucose levels. […] Blood samples were collected from the tail vein in an amount equal to one heparinized capillary tube.
# The amount of feed and general behaviour were checked at least once a day.
# Blood glucose levels were measured on the days when blood samples were collected.
# [4] = test system: C57BL/6J mice; assay: Insulin tolerance test using pravastatin-dosed mice; format: in vivo; conditions: C57BL/6J mice dosed in feed for 15 weeks, fasted 2 hours, insulin 0.5 u/kg intraperitoneally; significantly lower than non-dose group (148 mg/dl)
# Description: A group administered with pravastatin by mixing in feed for 15 weeks and a non-dosed group of C57BL/6J mice (n=5) were fasted for 2 hours. After measuring the body weight of each animal, insulin (Humalin, Lilly) was administered intraperitoneally at 0.5 u/kg, and blood samples were collected from the tail vein immediately before the start of administration and at 15, 30, 60 and 90 minutes after the start of administration followed by measurement of blood glucose levels.
# [5] = test system: C57BL/6J mouse adipocytes; assay: Glucose uptake test using isolated adipocytes from pravastatin-dosed mice; format: in vivo
# Description: (i) Epididymal adipose tissue was excised from a group administered with pravastatin for 16 weeks and a non-dosed group of C57BL/6J mice (n=5). The excised adipose tissue was handled under conditions of 37° C. at all times. The adipose tissue was cut into small pieces with a scissors, followed by the addition of medium (DMEM, 1 mM sodium pyruvate, 25 mM HEPES pH 7.4, 0.1% BSA, 100 u/ml penicillin, 0.1 mg/ml streptomycin) containing 1 mg/ml of collagenase I (Worshington), and shaking at 37° C. and 80 rpm. Following the reaction, 2.5 volumes of the aforementioned medium were added, the adipocytes were screened out by passing the cell suspension through a 260 μm mesh sieve, and again passed through a 100 μm mesh sieve to prepare an adipocyte suspension. […] Subsequently, 0.6 μCi of ^3H-labeled 2-deoxyglucose was added and allowed to react for 30 minutes. Following the reaction, the cell suspension was immediately transferred to a centrifuge tube containing silicone oil and centrifuged. After cutting out the oil layer of the upper layer containing adipocytes with a knife, it was transferred to a glass vial containing 4 ml of Hionic Fluor (Perkin-Elmer) liquid scintillation counter cocktail followed by measurement of specific radioactivity. The amount of measured radioactivity of the ^3H-2-deoxyglucose was used as an indicator of the amount of glucose taken up by the cells. (4) Results
smiles,measurement,setting,value
"CC(C)c1nc(N(C)S(C)(=O)=O)nc(-c2ccc(F)cc2)c1/C=C/[C@@H](O)C[C@@H](O)CC(=O)O [rosuvastatin, (+)-(3R,5S)-7-[4-(4-fluorophenyl)-6-isopropyl-2-(N-methyl-N-methanesulfonylamino)pyrimidin-5-yl]-3,5-dihydroxy-6(E)-heptenoic acid]",amount of secreted adiponectin relative to the control group,[1],1.6 times
same,amount of adiponectin mRNA relative to the control group,[2],1.3 times
"CC[C@H](C)C(=O)O[C@H]1C[C@H](O)C=C2C=C[C@H](C)[C@H](CC[C@@H](O)C[C@@H](O)CC(=O)O)[C@H]21 [pravastatin, (+)-(3R,5R)-3,5-dihydroxy-7-[(1S,2S,6S,8S,8aR)-6-hydroxy-2-methyl-8-[(S)-2-methylbutyryloxy]-1,2,6,7,8,8a-hexahydro-1-naphthyl]heptanoic acid]","blood glucose levels, dose group versus non-dose group",[3],no significant differences
same,adiponectin concentrations in dose group relative to non-dose group,[3]; blood,1.28 times
same,amount of secreted adiponectin relative to the control group,[1],1.7 times
same,blood glucose level at 60 minutes after administration of insulin,[4],110 mg/dL
same,amount of adiponectin mRNA relative to the control group,[2],1.6 times
same,insulin sensitivity versus non-dose group,[5]; adipocytes isolated from C57BL/6J mice dosed for 16 weeks,increased insulin sensitivity
same,amount of glucose uptake relative to non-dose group,"[5]; epididymal adipocytes isolated from C57BL/6J mice dosed for 16 weeks, insulin-induced 3H-2-deoxyglucose uptake",1.4 times
